From patent publication US5731343A (The Scripps Research Institute, priority 1995, dated 1998)
Read-outs that look alike come from different tables or passages of the source.

Key:
[1] = system: p60^v-src; settings: cited from earlier work
[2] = biological target: p60^c-src (Homo sapiens, UniProt P12931)
[3] = system: COX-2 mRNA; experiment: cells; settings: Rattus norvegicus, Macrophage, 2 h, read-out: inhibition of COX-2 mRNA levels
[4] = system: tumor cells; settings: U.S. Pat. Nos. 3,428,526 and 4,228,079; cited from earlier work
[5] = system: mitogen activated protein kinases (MAPK-1, MAPK-2 and p38); settings: 4 hours pretreatment; LPS (1 μg/ml); RAW 264.7
[6] = biological target: T1, endogenous COX (Rattus norvegicus, UniProt Q63921); experiment: Inactivation of endogenous COX activity in macrophages by aspirin; type: cell-based; settings: aspirin 500 μM, 2.5 hours
T1 construct: endogenous in cells; host or cells: alveolar macrophages of Sprague-Dawley rats (bronchoalveolar lavage)
T1 sequence (Q63921 27-602): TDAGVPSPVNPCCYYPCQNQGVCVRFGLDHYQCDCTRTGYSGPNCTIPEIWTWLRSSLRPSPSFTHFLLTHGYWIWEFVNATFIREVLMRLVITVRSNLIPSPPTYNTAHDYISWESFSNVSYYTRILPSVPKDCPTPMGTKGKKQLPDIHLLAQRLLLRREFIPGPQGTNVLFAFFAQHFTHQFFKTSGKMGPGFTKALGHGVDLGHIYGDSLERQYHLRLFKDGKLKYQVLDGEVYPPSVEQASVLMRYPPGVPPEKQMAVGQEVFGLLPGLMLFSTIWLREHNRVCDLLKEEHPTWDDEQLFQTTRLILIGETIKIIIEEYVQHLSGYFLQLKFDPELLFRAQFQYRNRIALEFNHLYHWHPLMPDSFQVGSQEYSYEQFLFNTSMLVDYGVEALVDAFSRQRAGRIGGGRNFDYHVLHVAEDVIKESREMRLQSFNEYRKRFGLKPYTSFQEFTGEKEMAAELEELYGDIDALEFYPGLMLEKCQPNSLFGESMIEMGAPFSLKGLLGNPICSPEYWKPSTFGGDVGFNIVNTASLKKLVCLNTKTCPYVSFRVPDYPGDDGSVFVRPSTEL
Excerpt: In the previous study using the same cell type, it was shown that increased COX activity in LPS-stimulated macrophages which were pretreated with aspirin, results from selective expression of COX-2 (Lee, et al., supra). Therefore, de novo synthesized COX-2 in aspirin-pretreated macrophages can be accurately and conveniently quantitated by measuring recovered COX activity.

[7] = system: cyclooxygenase; settings: intact macrophages; Glaser et al. 1993; cited from earlier work
[8] = system: COX-2; experiment: Recovery of COX activity (COX-2 expression) in aspirin-pretreated rat alveolar macrophages; type: cell-based; settings: read-out: IC50 suppression of LPS-induced expression of COX-2
[9] = system: murine resident peritoneal macrophages; settings: stimulated with zymosan, calcium ionophore A23187, and PMA; Glaser et al.; cited from earlier work
[10] = system: p53/56^lyn; experiment: Western blot analysis of p53/56^lyn in LPS-stimulated macrophages; type: cell-based, rat; settings: 4 hours pretreatment; LPS (10 μg/ml)
[11] = system: c-raf; settings: human T cells; June et al. 1990; cited from earlier work
[12] = system: RAW 264.7; settings: Weinstein et al., cited from earlier work
[13] = system: tyrosine phosphorylated proteins (Src family tyrosine kinases); experiment: Antiphosphotyrosine immunoblotting of LPS-stimulated macrophages; type: cell-based; settings: 4 hours pretreatment; LPS (10 μg/ml); rat alveolar macrophages
[14] = system: p60^v-src; settings: Uehara et al. 1989; cited from earlier work

p60^c-src, sequence (P12931 whole entry): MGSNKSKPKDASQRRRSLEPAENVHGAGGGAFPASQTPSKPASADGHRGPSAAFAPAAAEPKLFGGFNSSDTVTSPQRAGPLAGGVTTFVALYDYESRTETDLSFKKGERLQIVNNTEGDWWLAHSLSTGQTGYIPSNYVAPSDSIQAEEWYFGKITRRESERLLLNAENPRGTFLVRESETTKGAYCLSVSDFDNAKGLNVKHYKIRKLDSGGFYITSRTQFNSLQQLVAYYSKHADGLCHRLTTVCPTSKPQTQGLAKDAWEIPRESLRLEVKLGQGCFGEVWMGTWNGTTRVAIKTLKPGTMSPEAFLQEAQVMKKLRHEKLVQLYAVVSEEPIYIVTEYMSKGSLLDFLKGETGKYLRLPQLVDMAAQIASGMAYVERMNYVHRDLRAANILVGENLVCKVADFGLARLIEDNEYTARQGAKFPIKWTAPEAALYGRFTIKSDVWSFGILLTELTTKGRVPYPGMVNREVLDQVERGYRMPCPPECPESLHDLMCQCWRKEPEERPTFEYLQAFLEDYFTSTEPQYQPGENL

C[C@@H]1C[C@H]2O[C@@H]2/C=C\C=C\C(=O)Cc2c(Cl)c(O)cc(O)c2C(=O)O1 [Radicicol, 5-chloro-6-(7,8-epoxy-10-hydroxy-2-oxo-3,5-undecadienyl)-β-resorcyclic acid μ-lactone]
inhibition of p60^v-src ([1]; Kwon et al. 1992): inhibitor of p60^v-src | IC50 [2]: 8.2 µM | inhibition at 1 µg/mL [3]: 50% | inhibitory effect in vitro on the growth of tumor cells [4]: strong inhibitory effect | inhibition of tyrosine phosphorylation of MAPKs [5]: inhibited tyrosine phosphorylation of MAPKs in a dose dependent fashion

CC(=O)Oc1ccccc1C(=O)O [aspirin]
inhibition at 500 µM [6]: > 90%

O=c1c(-c2ccc(O)cc2)coc2cc(O)cc(O)c12 [genistein]
inhibitory effect on cyclooxygenase activity [7]: no inhibitory effect | IC50 [8]: 22 µM | PGE2 production [9]: inhibited

CO[C@H]1[C@@H](OC)C[C@H](C)[C@@H](OC)C2=CC(=O)C=C(NC(=O)/C(C)=C/C=C\[C@H](OC)[C@@H](OC(N)=O)/C(C)=C/[C@@H]1C)C2=O [herbimycin A]
IC50 ([1]; Uehara et al. 1989, read-out: IC50 in vitro kinase activity): 12 µM | inhibitory effect on p60^v-src kinase activity in presence of sulfhydryl compounds ([1]; sulfhydryl compounds): abolished | IC50 [8]: 0.052 µM | levels of p53/56^lyn [10]: significant reduction levels of p53/56^lyn | PMA-stimulated c-raf activity [11]: resistant to the inhibitory effects | LPS-induced release of [^3 H]-arachidonic acid metabolites ([12]; LPS): dramatically inhibits | PMA-induced release of [^3 H]-arachidonic acid metabolites ([12]; PMA): only weakly inhibits | levels of tyrosine phosphorylated proteins [13]: suppressed levels of tyrosine phosphorylated proteins | degradation of p60^v-src [14]: increased the degradation

N#CC(=Cc1ccc(O)c(O)c1)C(=O)Nc1ccccc1 [tryphostin (AG-494)]
IC50 ([8]; LPS): 357 µM

N#CC(C#N)=Cc1cc(O)c(O)c(O)c1 [tyrphostin-25]
inhibitory effect on cyclooxygenase activity [7]: no inhibitory effect | PGE2 production [9]: inhibited
